# Test results: US4606911A, “Pharmaceutical composition for the prevention of dental caries” (Rohto Pharmaceutical Co. Ltd., priority 1984, dated 1986)
# “Also recorded” adds a separate entry of the source. Like-named read-outs stand apart in the source and are kept apart here.
# Tests used:
# Assay type in all cases: cell-based
# [1] = system: Serratia marcescens IFO 12648; assay: Antibacterial activity (MIC, growth in BHI medium); set-up: key to Antibacterial activity (growth): -: grow; ±: slightly grow; +: not grow
# Experimental: (§1) To a test tube was charged 3.8 ml of Brain Heart Infusion (BHI) medium, and 100 μl of a sample solution containing oleanolic, ursolic or glycyrrhetic acid and 100 μl of pre-incubated culture of bacterium selected from those listed below were added thereto. The mixture was incubated at 37° C. and then allowed to stand over night. The extent of the growth of bacterium was observed after two or five days. The MIC value was determined for each sample and summarized in Table 2. |Serratia marcescens IFO 12648
# [2] = system: Streptococcus salivarius ATCC 9222; assay: Antibacterial activity (MIC, growth in BHI medium); set-up: key to Antibacterial activity (growth): -: grow; ±: slightly grow; +: not grow
# Experimental: as §1, with “|Streptococcus salivarius ATCC 9222” for “|Serratia marcescens IFO 12648”
# [3] = system: Staphylococcus aureus 209P; assay: Antibacterial activity (MIC, growth in BHI medium); set-up: key to Antibacterial activity (growth): -: grow; ±: slightly grow; +: not grow
# Experimental: as §1, with “|Staphylococcus aureus […]” for “|Serratia marcescens IFO 12648”
# [4] = system: Streptococcus mutans OMZ 176; assay: Antibacterial activity (MIC, growth in BHI medium); set-up: key to Antibacterial activity (growth): -: grow; ±: slightly grow; +: not grow
# Experimental: as §1, with “days.” for “days. The MIC value was determined for each sample and summarized in Table 2. |Serratia marcescens IFO 12648”
# Streptococcus mutans OMZ 176
# [5] = system: Pseudomonas aeruginosa KM338; assay: Antibacterial activity (MIC, growth in BHI medium); set-up: key to Antibacterial activity (growth): -: grow; ±: slightly grow; +: not grow
# Experimental: as §1, with “|Pseudomonas aeruginosa KM338” for “|Serratia marcescens IFO 12648”
# Esherichia coli K12 = assay: Antibacterial activity (MIC, growth in BHI medium); set-up: key to Antibacterial activity (growth): -: grow; ±: slightly grow; +: not grow
# Experimental: as §1, with “days.” for “days. The MIC value was determined for each sample and summarized in Table 2. |Serratia marcescens IFO 12648”
# Esherichia coli K12 (Gram negative)
# [6] = system: Bacillus megaterium QM B1551; assay: Antibacterial activity (MIC, growth in BHI medium); set-up: key to Antibacterial activity (growth): -: grow; ±: slightly grow; +: not grow
# Experimental: as §1, with “|Bacillus megaterium QM B1551” for “|Serratia marcescens IFO 12648”
# [7] = system: S. mutans OMZ 176 (serotype d); assay: microbe, parasite or virus in culture; conditions: for inhibition at 10 µg/mL / inhibition at 20 µg/mL / inhibition at 30 µg/mL / inhibition at 50 µg/mL / inhibition at 100 µg/mL: Streptococcus mutans, read-out: Adherence-inhibiting activity (AIP); for adherence-inhibiting activity (in words): text statement
# Experimental: The adherence-inhibiting activity of the triterpenes of the formula (I) was measured using an inner wall of a test tube in place of the surface of a tooth.
# To 2.9 ml of BHI medium containing 5% sucrose in a test tube (i) are added 30 μl of a sample solution prepared by dissolving a compound of: the formula (I) in H2 O or dimethylsulfoxide (DMSO) and 100 μl of culture medium containing S. mutans OMZ 176 (serotype d) which was preincuvated at 37° C. for 24 hours in BHI medium, and the mixture is incubated at 37° C. for 20 hours, with the test tube being maintained at a slant of 30°. The test tube is revolved gently two or three times and the supernatant is transferred to another test tube (ii). To the first test tube (i) is added 3 ml of 50 mM phosphate buffer (pH 7.5), and the test tube is gently revolved two or three times. The resultant supernatant is transferred to the third test tube (iii). The test tubes (ii) and (iii) are each centrifuged and respective supernatants are discarded. To each of the test tubes (i), (ii) and (iii) is added 3 ml of 0.5M NaOH, and the test tubes are shaken to suspend bacterial cells. Absorbance of the resulting suspension is measured at 660 nm. The absorbances obtained with respect to the test tube (i), (ii) and (iii) are represented by Ab(i), Ab(ii) and Ab(iii), respectively. Ab(i) reflects the amount of the bacterial cells adhered to the wall of the test tube and Ab(ii) and Ab(iii) correspond to the amount of the bacterial cells not adhered to the wall.
# The same procedure is repeated using 30 μl of distilled water or DMSO in place of the sample solution to obtain a control. The absorbance of the control is represented by Ab(Cont.).
# Adherence percentage of bacteria is calculated from the following equation. [formula]
# Adherence inhibitory percentage (AIP) is calculated using the adherence percentage according to the following equation. [formula]
# The magnitude of adherence-inhibiting activity of each of the samples is shown, in Table 3, by the use of the following symbols: […]
molecule,measurement,setting,value
CC1(C)[C@@H](O)CC[C@]2(C)[C@H]3C(=O)C=C4[C@@H]5C[C@@](C)(C(=O)O)CC[C@]5(C)CC[C@@]4(C)[C@]3(C)CC[C@@H]12 [Glycyrrhetic acid],Antibacterial activity (growth),[1]; 10 μg/ml,-
same,Antibacterial activity (growth),[1]; 25 μg/ml,-
same,Antibacterial activity (growth),[1]; 50 μg/ml,-
same,Antibacterial activity (growth),[1]; 100 μg/ml,-
same,Antibacterial activity (growth),[1]; 200 μg/ml,-
same,Antibacterial activity (growth),[1]; 400 μg/ml,-
same,MIC,"[1]; IFO12648, Serratia marcescens, BHI, 37° C., read-out: MIC (minimum inhibitory concentration)",> 400 µg/mL
same,antibacterial action on Serratia marcescens (in words),[1]; text statement,remain unaffected
same,Antibacterial activity (growth),[2]; 10 μg/ml,-
same,Antibacterial activity (growth),[2]; 25 μg/ml,-
same,Antibacterial activity (growth),[2]; 50 μg/ml,-
same,Antibacterial activity (growth),[2]; 100 μg/ml,-
same,Antibacterial activity (growth),[2]; 200 μg/ml,-
same,Antibacterial activity (growth),[2]; 400 μg/ml,±
same,MIC,"[2]; ATCC9222, Streptococcus salivarius, BHI, 37° C., read-out: MIC (minimum inhibitory concentration)",> 400 µg/mL
same,antibacterial action on Streptococcus salivarius (in words),[2]; text statement,remain unaffected
same,Antibacterial activity (growth),[3]; 10 μg/ml,-
same,Antibacterial activity (growth),[3]; 25 μg/ml,-
same,Antibacterial activity (growth),[3]; 50 μg/ml,-
same,Antibacterial activity (growth),[3]; 100 μg/ml,-
same,Antibacterial activity (growth),[3]; 200 μg/ml,-
same,Antibacterial activity (growth),[3]; 400 μg/ml,-
same,MIC,"[3]; 209P, Staphylococcus aureus, BHI, 37° C., read-out: MIC (minimum inhibitory concentration)",400 µg/mL
same,antibacterial action on Staphylococcus aureus (in words),[3]; text statement,remain unaffected
same,antibacterial activity to S. mutans (in words),[4],exhibits a selective antibacterial activity on S. mutans and Bacillus megaterium; also recorded: very strong and selective antibacterial activity to S. mutans
same,Antibacterial activity (growth),[4]; 10 μg/ml,+
same,Antibacterial activity (growth),[4]; 25 μg/ml,+
same,Antibacterial activity (growth),[4]; 50 μg/ml,+
same,Antibacterial activity (growth),[4]; 100 μg/ml,+
same,Antibacterial activity (growth),[4]; 200 μg/ml,+
same,Antibacterial activity (growth),[4]; 400 μg/ml,+
same,MIC (minimum inhibitory concentration),"[4]; Streptococcus mutans OMZ 176, BHI, 37° C.",lower than 10 μg/ml
same,MIC,"[4]; Streptococcus mutans, OMZ176, Streptococcus mutans OMZ 176, BHI, 37° C., read-out: MIC (minimum inhibitory concentration)",10 µg/mL
same,Antibacterial activity (growth),[5]; 10 μg/ml,-
same,Antibacterial activity (growth),[5]; 25 μg/ml,-
same,Antibacterial activity (growth),[5]; 50 μg/ml,-
same,Antibacterial activity (growth),[5]; 100 μg/ml,-
same,Antibacterial activity (growth),[5]; 200 μg/ml,-
same,Antibacterial activity (growth),[5]; 400 μg/ml,-
same,MIC,"[5]; KM338, Pseudomonas aeruginosa, BHI, 37° C., read-out: MIC (minimum inhibitory concentration)",> 400 µg/mL
same,antibacterial action on Pseudomonas aeruginosa (in words),[5]; text statement,remain unaffected
same,Antibacterial activity (growth),Esherichia coli K12; 10 μg/ml,-
same,Antibacterial activity (growth),Esherichia coli K12; 25 μg/ml,-
same,Antibacterial activity (growth),Esherichia coli K12; 50 μg/ml,-
same,Antibacterial activity (growth),Esherichia coli K12; 100 μg/ml,-
same,Antibacterial activity (growth),Esherichia coli K12; 200 μg/ml,-
same,Antibacterial activity (growth),Esherichia coli K12; 400 μg/ml,-
same,MIC,"Esherichia coli K12; Esherichia coli, BHI, 37° C., read-out: MIC (minimum inhibitory concentration)",> 400 µg/mL
same,antibacterial action on Escherichia coli (in words),Esherichia coli K12; text statement,remain unaffected
same,Antibacterial activity (growth),[6]; 10 μg/ml,-
same,Antibacterial activity (growth),[6]; 25 μg/ml,+
same,Antibacterial activity (growth),[6]; 50 μg/ml,+
same,Antibacterial activity (growth),[6]; 100 μg/ml,+
same,Antibacterial activity (growth),[6]; 200 μg/ml,+
same,Antibacterial activity (growth),[6]; 400 μg/ml,+
same,MIC,"[6]; Priestia megaterium, QMB1551, Bacillus megaterium, BHI, 37° C., read-out: MIC (minimum inhibitory concentration)",25 µg/mL
same,antibacterial activity on Bacillus megaterium (in words),[6]; text statement,exhibits a selective antibacterial activity on S. mutans and Bacillus megaterium
"CC1(C)[C@@H](O[C@H]2O[C@H](C(=O)O)[C@@H](O)[C@H](O)[C@H]2O[C@@H]2O[C@H](C(=O)O)[C@@H](O)[C@H](O)[C@H]2O)CC[C@]2(C)[C@H]3C(=O)C=C4[C@@H]5C[C@@](C)(C(=O)O)CC[C@]5(C)CC[C@@]4(C)[C@]3(C)CC[C@@H]12 [Glycyrrizic acid, reference compound]",inhibition at 10 µg/mL,[7],< 25%
same,inhibition at 20 µg/mL,[7],< 25%
same,inhibition at 30 µg/mL,[7],< 25%
same,inhibition at 50 µg/mL,[7],< 25%
same,inhibition at 100 µg/mL,[7],< 25%
same,adherence-inhibiting activity (in words),[7],could not be observed
same,antibacterial activity to S. mutans (in words),[4]; text statement,could not be observed
"COC(=O)[C@]12CCC(C)(C)C[C@H]1C1=CC[C@@H]3[C@@]4(C)CC[C@H](O)C(C)(C)[C@@H]4CC[C@@]3(C)[C@]1(C)CC2 [Methyl oleanolate (17-position) (a), Methyl oleanolate, reference compound]",inhibition at 10 µg/mL,[7],< 25%
same,inhibition at 20 µg/mL,[7],< 25%
same,inhibition at 30 µg/mL,[7],< 25%
same,inhibition at 50 µg/mL,[7],< 25%
same,inhibition at 100 µg/mL,[7],< 25%
"CC1(C)CC[C@]2(CO)CC[C@]3(C)C(=CC[C@@H]4[C@@]5(C)CC[C@H](O)C(C)(C)[C@@H]5CC[C@]43C)[C@@H]2C1 [Oleanolic acid (acid reductant) (b), reference compound]",inhibition at 10 µg/mL,[7],< 25%
same,inhibition at 20 µg/mL,[7],< 25%
same,inhibition at 30 µg/mL,[7],< 25%
same,inhibition at 50 µg/mL,[7],< 25%
same,inhibition at 100 µg/mL,[7],< 25%
"CC1(C)CC[C@]2(C)CC=C3[C@]4(C)CC[C@H]5C(C)(C)[C@@H](O)CC[C@]5(C)[C@H]4CC[C@@]3(C)[C@@H]2C1 [Taraxerol, reference compound]",inhibition at 10 µg/mL,[7],< 25%
same,inhibition at 20 µg/mL,[7],< 25%
same,inhibition at 30 µg/mL,[7],< 25%
same,inhibition at 50 µg/mL,[7],< 25%
same,inhibition at 100 µg/mL,[7],< 25%
same,adherence-inhibiting activity (in words),[7],could not be observed
same,antibacterial activity to S. mutans (in words),[4]; text statement,could not be observed
CC(=O)O[C@H]1CC[C@]2(C)[C@H]3CC=C4[C@@H]5CC(C)(C)CC[C@]5(C(=O)O)CC[C@@]4(C)[C@]3(C)CC[C@H]2C1(C)C [reference compound],inhibition at 10 µg/mL,[7],< 25%
same,inhibition at 20 µg/mL,[7],< 25%
same,inhibition at 30 µg/mL,[7],< 25%
same,inhibition at 50 µg/mL,[7],25 to 50%
same,inhibition at 100 µg/mL,[7],25 to 50%
"Chikusetsusaponin V [Chikusetsusaponin V (e), reference compound]",adherence-inhibiting activity (in words),[7],could not be observed
same,antibacterial activity to S. mutans (in words),[4]; text statement,could not be observed
